Test results: patent publication US20240182480A1, “5-HT2A AND/OR 5-HT2C RECEPTOR AGONISTS” (priority 2021, published 2024)
Where two headings read alike, the source gives them in different places.

What was measured:
5-HT2A = molecular target: T1, 5-HT2A (Homo sapiens, UniProt P28223); test: cell-based; conditions: FLIPR calcium assay, agonist mode
T1 construct: expressed in transfected cells; the paragraph before it names a CHO-K1-mt aequorin Gα16 cell line

5-HT2B = molecular target: T2, 5-HT2B (Homo sapiens, UniProt P41595); test: cell-based; conditions: FLIPR calcium assay, agonist mode
T2 construct: expressed in transfected cells; the paragraph before it names a CHO-K1-mt aequorin Gα16 cell line
T2 sequence (P41595 whole entry): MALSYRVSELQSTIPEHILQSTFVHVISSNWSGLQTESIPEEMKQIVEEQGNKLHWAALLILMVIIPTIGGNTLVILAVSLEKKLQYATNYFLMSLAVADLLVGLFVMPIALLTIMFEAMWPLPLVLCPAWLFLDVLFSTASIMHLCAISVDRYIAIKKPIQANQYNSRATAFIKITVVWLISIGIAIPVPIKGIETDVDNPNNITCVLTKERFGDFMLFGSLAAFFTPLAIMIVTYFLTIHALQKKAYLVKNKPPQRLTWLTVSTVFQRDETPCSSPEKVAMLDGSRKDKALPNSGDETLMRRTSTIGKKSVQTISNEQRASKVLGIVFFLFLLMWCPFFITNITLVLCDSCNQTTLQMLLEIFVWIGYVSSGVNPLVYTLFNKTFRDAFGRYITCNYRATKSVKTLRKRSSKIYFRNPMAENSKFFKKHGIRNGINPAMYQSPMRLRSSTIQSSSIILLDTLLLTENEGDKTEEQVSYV

5-HT2C = molecular target: T3, 5-HT2C (Homo sapiens, UniProt P28335); test: 5-HT2C pharmacological screening by FLIPR assay in agonist mode; format: cell-based
T3 construct: expressed in transfected cells; the paragraph before it names a CHO-K1-mt aequorin Gα16 cell line
T3 sequence (P28335 33-458): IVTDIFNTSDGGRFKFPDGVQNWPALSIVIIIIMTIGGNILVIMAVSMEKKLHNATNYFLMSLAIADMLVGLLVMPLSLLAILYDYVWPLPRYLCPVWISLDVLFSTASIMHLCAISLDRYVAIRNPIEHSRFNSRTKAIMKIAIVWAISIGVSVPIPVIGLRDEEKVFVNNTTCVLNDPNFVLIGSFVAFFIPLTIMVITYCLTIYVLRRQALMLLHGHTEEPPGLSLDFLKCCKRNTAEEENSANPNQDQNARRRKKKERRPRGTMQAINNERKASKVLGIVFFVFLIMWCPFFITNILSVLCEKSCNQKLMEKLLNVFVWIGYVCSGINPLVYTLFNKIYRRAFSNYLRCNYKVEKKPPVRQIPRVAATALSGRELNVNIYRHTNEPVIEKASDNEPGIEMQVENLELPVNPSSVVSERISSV

[1] = class symbols, read-out: 5-HT2A (EC50, % max activity)
[2] = class symbols, read-out: 5-HT2B (EC50, % max activity)
[3] = FLIPR calcium assay, agonist mode, approximate values, read-out: 5-HT2C, (EC50, % max activity)
[4] = FLIPR calcium assay, agonist mode, class symbols, read-out: 5-HT2C (EC50, % max activity)
[5] = 5-HT2A (EC50, % max activity), class symbols
[6] = 5-HT2A, (EC50, % max activity), approximate values
[7] = 5-HT2B (EC50, % max activity), class symbols
[8] = 5-HT2B, (EC50, % max activity), approximate values

T1 sequence (P28223 whole entry): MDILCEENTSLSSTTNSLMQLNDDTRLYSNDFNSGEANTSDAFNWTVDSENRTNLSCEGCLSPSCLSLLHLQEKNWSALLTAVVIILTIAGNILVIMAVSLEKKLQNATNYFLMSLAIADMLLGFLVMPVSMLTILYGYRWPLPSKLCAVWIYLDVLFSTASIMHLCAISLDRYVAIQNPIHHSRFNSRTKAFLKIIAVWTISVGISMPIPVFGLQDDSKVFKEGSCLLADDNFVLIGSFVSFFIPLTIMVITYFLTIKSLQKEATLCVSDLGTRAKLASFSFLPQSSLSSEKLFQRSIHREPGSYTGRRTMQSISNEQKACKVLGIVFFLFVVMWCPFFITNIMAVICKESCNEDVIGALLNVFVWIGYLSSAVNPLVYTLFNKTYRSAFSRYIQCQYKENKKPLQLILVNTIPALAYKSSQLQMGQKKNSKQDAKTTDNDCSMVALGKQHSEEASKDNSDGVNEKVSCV

| EC50 (5-HT2A; [1]) [nM] | EC50 (5-HT2B; [2]) [nM] | Structure (SMILES) | EC50 (5-HT2A; [5]) [nM] | EC50 (5-HT2B; [7]) [nM] | further results |
| --- | --- | --- | --- | --- | --- |
| 1000 to 6000 | 200 to 1000 | FC1CCN(c2cnc3c(n2)CCNCC3)CC1 [Example 4, 2-(4-fluoropiperidin-1-yl)-6,7,8,9-tetrahydro-5H-pyrazino[2,3-d]azepine] |  |  |  |
|  |  | c1nc2c(nc1N1CCCOCC1)CCNCC2 [Example 1, 4-(6,7,8,9-tetrahydro-5H-pyrazino[2,3-d]azepin-2-yl)-1,4-oxazepane] | 1000 to 6000 | > 6000 | EC50 (5-HT2C; [3]): ~100 nM; EC50 (5-HT2C; [4]): < 200 nM; EC50 (5-HT2A; [6]): ~2000 nM; EC50 (5-HT2B; [8]): > 30000 nM |
| > 6000 | > 6000 | Nc1cnc2c(n1)CCNCC2 [Example 19, 6,7,8,9-tetrahydro-5H-pyrazino[2,3-d]azepin-2-amine] |  |  |  |
| > 6000 | 200 to 1000 | CN(C)c1cnc2c(n1)CCNCC2 [Example 15, N,N-dimethyl-6,7,8,9-tetrahydro-5H-pyrazino[2,3-d]azepin-2-amine] |  |  |  |
| > 6000 | > 6000 | FC1CN(c2cnc3c(n2)CCNCC3)C1 [Example 17, 2-(3-fluoroazetidin-1-yl)-6,7,8,9-tetrahydro-5H-pyrazino[2,3-d]azepine] |  |  |  |
|  |  | Clc1cnc2c(n1)CCNCC2 [Example 20, 2-chloro-6,7,8,9-tetrahydro-5H-pyrazino[2,3-d]azepine] | > 6000 | > 6000 |  |
|  |  | CN1CCc2[nH]c3ncccc3c2CC1 [Example 22, 7-methyl-5,6,7,8,9,10-hexahydropyrido[3′,2′:4,5]pyrrolo[2,3-d]azepine] | > 6000 | > 6000 | EC50 (5-HT2C; 5-HT2C (EC50, % max activity, FLIPR calcium assay, agonist mode), class symbols): > 6000 nM |
|  |  | FC1(F)CCN(c2cnc3c(n2)CCNCC3)CC1 [Example 2, 2-(4,4-difluoropiperidin-1-yl)-6,7,8,9-tetrahydro-5H-pyrazino[2,3-d]azepine] | 200 to 1000 | 1000 to 6000 | EC50 (5-HT2C; [3]): ~200 nM; EC50 (5-HT2C; [4]): < 200 nM; EC50 (5-HT2A; [6]): ~900 nM; EC50 (5-HT2B; [8]): ~4000 nM |
| > 6000 | 200 to 1000 | c1nc2c(nc1N1CCCC1)CCNCC2 [Example 16, 2-(pyrrolidin-1-yl)-6,7,8,9-tetrahydrahydro-5H-pyrazino[2,3-d]azepine] |  |  |  |
|  |  | c1ccc(COc2cnc3c(n2)CCNCC3)cc1 [Example 18, 2-(benzyloxy)-6,7,8,9-tetrahydro-5H-pyrazino[2,3-d]azepine] | > 6000 | < 200 |  |
